We go through 3 compounds from ChEMBL document CHEMBL1131809, “1-[(Benzofuran-2-yl)phenylmethyl]-triazoles and -tetrazoles - potent competitive inhibitors of aromatase” (Bioorg Med Chem Lett, 1999).

This test addresses T1, Aromatase (Homo sapiens, UniProt P11511).
T1 sequence (P11511 whole entry): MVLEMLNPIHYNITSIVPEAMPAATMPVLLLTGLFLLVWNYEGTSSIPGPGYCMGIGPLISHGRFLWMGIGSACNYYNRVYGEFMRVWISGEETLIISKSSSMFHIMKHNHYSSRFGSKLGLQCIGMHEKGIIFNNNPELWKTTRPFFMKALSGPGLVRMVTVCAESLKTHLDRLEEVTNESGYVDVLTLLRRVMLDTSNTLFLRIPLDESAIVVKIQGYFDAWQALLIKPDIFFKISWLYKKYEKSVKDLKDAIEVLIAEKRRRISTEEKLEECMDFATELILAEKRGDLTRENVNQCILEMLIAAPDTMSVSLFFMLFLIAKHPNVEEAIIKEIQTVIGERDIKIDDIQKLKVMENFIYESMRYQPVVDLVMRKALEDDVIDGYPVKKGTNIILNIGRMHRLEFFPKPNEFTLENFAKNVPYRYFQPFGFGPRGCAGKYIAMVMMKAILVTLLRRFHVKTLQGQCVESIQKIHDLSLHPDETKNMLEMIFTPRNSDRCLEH
Description: Inhibition of human placental aromatase, cytochrome P450 19A1 at 20 uM
On to `Cc1ccc(C(c2cc3ccccc3o2)n2cnnn2)cc1` (stereo not drawn), for which the inhibition at 20 µM is 67.2%.
For `O=[N+]([O-])c1ccc2oc(C(c3ccccc3)n3cnnn3)cc2c1` (stereo not drawn) the value was 14.4%; for `c1ccc(C(c2cc3ccccc3o2)n2cncn2)cc1` (stereo not drawn), 85.7%.
